Measurements: patent publication EP2062893A1, “Fused imidazoles for cancer treatment” (Bayer Schering Pharma AG, priority 2007, dated 2009)

Columns and labels:
Format in all cases: cell-based
[1] = system: phosphorylated Akt protein; assay: Cellular PI3K / Akt pathway assay (phospho-Akt Ser473 sandwich ELISA); settings: Homo sapiens; MCF7 cells, ß-Heregulin (20ng/ml) stimulation, 48h incubation
Protocol: In order to study the cellular activity of the compounds according to the present invention, an Enzyme Linked Immunosorbent Assay (ELISA)-based assay has been used specific phospho-AKT. The assay is based on a Sandwich ELISA kit (PathScan™ Phospho-Akt1 (Ser473); Cell Signaling, USA; #7160). The ELISA Kit detects endogenous levels of phosphorylated Akt protein. A phospho-Akt (Ser473) antibody (Cell Signaling, USA; #9271) has been coated onto the microwells. After incubation with cell lysates, the coated antibody captures the phosphorylated Akt protein. Following extensive washing, Akt1 monoclonal antibody (Cell Signaling, USA; #2967) is added to detect the captured phospho-Akt1 protein. HRP-linked anti-mouse antibody (HRP: horseradish peroxidase; Cell Signaling, USA; #7076) is then used to recognize the bound detection antibody. HRP substrate (= 3,3',5,5'-tetramethylbenzidine (TMB); Cell Signaling, USA; #7160) is added to develop colour. The magnitude of optical density for this developed color is proportional to the quantity of phosphorylated Akt protein. MCF7 cells (ATCC HTB-22) are seeded into 96 well fate bottom plates at a density of 10000 cells/well. 24 hours after seeding, the cells are serum starved using low-serum medium (IMEM media including 0,1% charcoal treated FCS (FCS: fetal calf serum)). […] To stimulate Akt phosphorylation, ß-Heregulin (20ng/ml ß-HRG) is added in parallel to the compounds. Wells containing unstimulated control cells (no ß-Heregulin stimulation) are incubated with or without the diluted compound. Wells containing untreated control cells (no compound) are filled with medium containing 0.5% v:v DMSO and are or are not stimulated with ß-Heregulin. Cells are harvested and lysed with brief sonification in 1x cell lysis buffer (20mM Tris (pH7.5), 150 mM NaCl, 1 mM ethylene diaminetetraacetate (EDTA), 1 mM ethylene glycolbis(2-aminoethyl)-N,N,N',N'-tetraacetic acid (EGTA), 1vol% Triton X-100, 2.5mM sodium pyrophosphate, 1 mM β-glycerolphosphate, 1 mM Na3VO4, 1µg/ml leupeptin). The lysate is centrifuged for 10 min. at 4°C and the supernatant is transferred to a new tube. 100 µl of sample diluent (0.1vol% Tween-20, 0.1vol% sodium azide in phosphate buffered saline (PBS)) are added to a microcentrifuge tube and 100 µl of cell lysate are transferred into the tube and vortexed. 100 µl of each diluted cell lysate are added to the appropriate ELISA well, and incubated overnight at 4°C. The plates are washed 4 times with 1x wash buffer (1vol% tween-20, 0.33vol% thymol, in PBS). Next 100 µl of detection antibody (Akt1 (2H10) monoclonal detection antibody; Cell Signaling, USA; #2967) are added to each well and incubation continued for 1h at 37°C. The washing procedure is repeated between each step. 100µl of secondary antibody (anti-mouse IgG HRP-linked antibody; Cell Signaling, USA; #7076) are added to each well and incubated for 30 min. at 37°C. Than, 100µl of TMB substrate (0.05% 3,3',5,5' tetramethylbenzidine, 0.1 % hydrogen peroxide, complex polypeptides in a buffered solution; Cell Signaling, USA; #7160) are added to each well and incubated for 30 min. at 25°C. Finally 100 µl of STOP solution (0.05vol% α and β unsaturated carbonyl compound) are added to each well and the plate are shaked gently. The absorbance is measured at λ =450 nm (Wallac Victor2; Perkin Elmer, USA) within 30 min. after adding the STOP solution. The analysis of the data is performed using a statistical program (Excel; Microsoft, USA). Preferred compounds show an inhibitory activity towards Akt phosphorylation below 10µM.

phosphorylated GSK3 = assay: Cellular pGSK3 assay (phospho-GSK3 Ser9 sandwich ELISA); settings: Homo sapiens; MCF7 cells, 48h incubation, IC50 of pGSK3 inhibition
Protocol: In order to study the cellular activity of the compounds according to the present invention, an ELISA-based assay has been established for the phosphorylated protein glycogen synthetase kinase 3 (GSK3). The assay is based on a solid phase sandwich ELISA that detects endogenous levels of phosphorylated GSK3 using a phospho-GSK3 (Ser9) specific antibody (BioSource International, Inc.; Catalog #KHO0461). After incubation with cell lysates, the coated antibody captures the phosphorylated GSK3 protein. Following extensive washing, GSK3 polyclonal antibody is added to detect the captured phospho-GSK3 protein. Secondary antibody (anti-rabbit IgG-HRP) is then used to recognize the bound detection antibody. After the second incubation and washing to remove all the excess anti-rabbit IgG-HRP, a substrate solution is added, which is acted upon by the bound enzyme to produce color. The intensity of this colored product is directly proportional to the concentration of GSK-3β [pS9] present in the original specimen. MCF7 cells (ATCC HTB-22) were seeded into 96 well fate bottom plates at a density of 10000 cells/well. After 24 h 1 µl each of the compound dilutions (test compounds were dissolved as 10 mM solutions in dimethylsulfoxide (DMSO) and subsequently diluted) were added into each well of the 96 well plates and incubated for 48h at 37°C in a humidified athmosphere containing 5% CO2. Cells were harvested and lysed in cell extraction buffer (10 mM Tris, pH 7.4, 100 mM NaCl, 1 mM EDTA, 1 mM EGTA, 1 mM NaF, 20 mM Na4P2O7, 2 mM Na3VO4, 1% Triton X-100, 10vol% glycerol, 0.1vol% SDS, 0.5vol% deoxycholate, 1 mM phenylmethylsulfonylfluorid (PMSF)). The lysate were centrifuged for 10 min. at 4°C and the supernatant were transferred to a new tube. 50 µl of sample diluent (standard diluent buffer, Biosource) were added and 100 µl of cell lysate transferred into the tube and vortexed. 100 µl of each diluted cell lysate were added to the appropriate ELISA well plate and incubated for 3h at room temperature. The plates were washed 4 times with 1x wash buffer (Biosource). 50 µl of detection antibody (GSK3 (Ser9) detection antibody; BioSource) were added to each well and incubated for 30 min. at room temperature. The washing procedure was repeated between each step. 100µl of HRP-linked secondary antibody (anti-mouse IgG HRP-linked antibody) were added to each well and incubated for 30 min. at room temperature. 100µl of TMB substrate (0.05vol% 3,3',5,5' tetramethylbenzidine, 0.1vol% hydrogen peroxide, complex polypeptides in a buffered solution; Biosource) were added to each well and incubated for 30 min. at room temperature. Finally 100 µl of Stop solution (0.05vol% α and β unsaturated carbonyl compound) were added to each well and the plate were shaked gently for a few seconds. The absorbance was measured at λ = 450 nm (Wallac Victor2; Perkin Elmer, USA) within 30 min. after adding the stop solution. The analysis of the data was performed using a statistical program (Excel; Microsoft, USA) and the IC50 of pGSK3 inhibition was determined.

OvCAR3 cells = assay: Cellular proliferation / Cytotoxicity assay (Alamar Blue / Resazurin cell viability); settings: Homo sapiens, OVCAR-3, 48h incubation, read-out: Anti-proliferative / Cytotoxic activity (OvCAR3 cells)
Protocol: Wells containing untreated control cells were filled with 200 µl DMEM (Dulbecco's Modified Eagle Medium) containing 0.5vol% v:v DMSO. The cells are then incubated with the substances for 48h at 37°C in a humidified atmosphere containing 5vol% CO2. To determine the viability of the cells, 20 µl of a Resazurin solution (90mg / I) are added. […] Viabilities are expressed as % values.

Row | Structure (SMILES) | IC50 [1] [nM] | IC50 (phosphorylated GSK3) [nM] | IC50 (OvCAR3 cells) [µM]
1 | Clc1ccc2nc(-c3ccc(CN4CCC(c5nnc(-c6ccccn6)[nH]5)CC4)cc3)c(-c3ccccc3)n2c1 [Example 7, 6-chloro-3-phenyl-2-(4-{[4-(5-pyridin-2-yl-4H-1,2,4-triazol-3-yl)piperidin-1-yl]methyl}phenyl)imidazo[1,2-a]pyridine] | < 1000 | 1000 to 10000 | < 10
2 | Cc1cccn2c(-c3ccccc3)c(-c3ccc(CN4CCC(c5n[nH]c(-c6ccccn6)n5)CC4)cc3)nc12 [Example 8, 8-methyl-3-phenyl-2-(4-{[4-(5-pyridin-2-yl-1,2,4-triazol-3-yl)piperidin-1-yl]methyl}phenyl)imidazo[1,2-a]pyridine] | < 1000 | 1000 to 10000 | < 10
3 | Fc1ccc(-c2c(-c3ccc(CN4CCC(c5n[nH]c(-c6ccccn6)n5)CC4)cc3)nc3ccccn23)cc1 [Example 9, 3-(4-fluorophenyl)-2-(4-{[4-(5-pyridin-2-yl-1,2,4-triazol-3-yl)piperidin-1-yl]methyl}phenyl)imidazo[1,2-a]pyridine] | 1000 to 10000 | 1000 to 10000 | > 10
4 | c1ccc(-c2c(-c3ccc(CN4CCC(c5n[nH]c(-c6ccccn6)n5)CC4)cc3)nc3sccn23)cc1 [Example 10, 5-phenyl-6-(4-{[4-(5-pyridin-2-yl-1,2,4-triazol-3-yl)piperidin-1-yl]methyl}phenyl)imidazo[2,1-b][1,3]thiazole] | < 1000 | < 1000 | < 10
5 | c1ccc(-c2c(-c3ccc(CN4CCC(c5n[nH]c(-c6ccccn6)n5)CC4)cc3)nc3scnn23)cc1 [Example 11, 5-phenyl-6-(4-{[4-(5-pyridin-2-yl-1,2,4-triazol-3-yl)piperidin-1-yl]methyl}phenyl)imidazo[2,1-b][1,3,4]thiadiazole] | < 1000 | 1000 to 10000 | < 10
6 | Brc1cnc2nc(-c3ccc(CN4CCC(c5n[nH]c(-c6ccccn6)n5)CC4)cc3)c(-c3ccccc3)n2c1 [Example 12, 6-bromo-3-phenyl-2-(4-{[4-(5-pyridin-2-yl-1,2,4-triazol-3-yl)piperidin-1-yl]methyl}phenyl)imidazo[1,2-a]pyrimidine] | < 1000 | < 1000 | < 10
7 | COc1cccn2c(-c3ccccc3)c(-c3ccc(CN4CCC(c5n[nH]c(-c6ccccn6)n5)CC4)cc3)nc12 [Example 13, 8-methoxy-3-phenyl-2-(4-{[4-(5-pyridin-2-yl-1,2,4-triazol-3-yl)piperidin-1-yl]methyl}phenyl)imidazo[1,2-a]pyridine] | < 1000 | 1000 to 10000 | < 10
8 | Fc1cccc(-c2c(-c3ccc(CN4CCC(c5n[nH]c(-c6ccccn6)n5)CC4)cc3)nc3ccccn23)c1 [Example 14, 3-(3-fluorophenyl)-2-(4-{[4-(5-pyridin-2-yl-1,2,4-triazol-3-yl)piperidin-1-yl]methyl}phenyl)imidazo[1,2-a]pyridine] | < 1000 | 1000 to 10000 | < 10
9 | COc1ccc(-c2c(-c3ccc(CN4CCC(c5n[nH]c(-c6ccccn6)n5)CC4)cc3)nc3ccccn23)cc1 [Example 15, 3-(4-methoxyphenyl)-2-(4-{[4-(5-pyridin-2-yl-1,2,4-triazol-3-yl)piperidin-1-yl]methyl}phenyl)imidazo[1,2-a]pyridine] | > 10000 | 1000 to 10000 | > 10
10 | c1ccc(-c2nc(C3CCN(Cc4ccc(-c5nc6ccccn6c5-c5ccncc5)cc4)CC3)n[nH]2)nc1 [Example 16, 3-pyridin-4-yl-2-(4-{[4-(5-pyridin-2-yl-1,2,4-triazol-3-yl)piperidin-1-yl]methyl}phenyl)imidazo[1,2-a]pyridine] | 1000 to 10000 | 1000 to 10000 | < 10
11 | c1ccc(-c2nc(C3CCN(Cc4ccc(-c5nc6ccccn6c5-c5cccs5)cc4)CC3)n[nH]2)nc1 [Example 17, 2-(4-{[4-(5-pyridin-2-yl-1,2,4-triazol-3-yl)piperidin-1-yl]methyl}phenyl)-3-(2-thienyl)imidazo[1,2-a]pyridine] | < 1000 | 1000 to 10000 | < 10
12 | Fc1ccc(-c2c(-c3ccc(CN4CCC(c5n[nH]c(-c6ccccn6)n5)CC4)cc3)nc3ncccn23)cc1 [Example 18, 3-(4-fluorophenyl)-2-(4-{[4-(5-pyridin-2-yl-1,2,4-triazol-3-yl)piperidin-1-yl]methyl}phenyl)imidazo[1,2-a]pyrimidine] | 1000 to 10000 | 1000 to 10000 | < 10
13 | Cc1ccn2c(-c3ccccc3)c(-c3ccc(CN4CCC(c5n[nH]c(-c6ccccn6)n5)CC4)cc3)nc2n1 [Example 19, 7-methyl-3-phenyl-2-(4-{[4-(5-pyridin-2-yl-1,2,4-triazol-3-yl)piperidin-1-yl]methyl}phenyl)imidazo[1,2-a]pyrimidine] | < 1000 | < 1000 | < 10
14 | COc1ccc(-c2c(-c3ccc(CN4CCC(c5n[nH]c(-c6ccccn6)n5)CC4)cc3)nc3ncccn23)cc1 [Example 20, 3-(4-methoxyphenyl)-2-(4-{[4-(5-pyridin-2-yl-1,2,4-triazol-3-yl)piperidin-1-yl]methyl}phenyl)imidazo[1,2-a]pyrimidine] | > 10000 | > 10000 | > 10
